Assay results published in publication PMC6643344, “Studying the Possibilities of Using 2-Halogen-Substituted Acetamides As Acyl Donors in Penicillin Acylase-Catalyzed Reactions” (Acta Naturae, 2019).

These molecules were tested against T1, penicillin acylase from Escherichia coli (Escherichia coli, UniProt P06875) (assay: first-order inactivation, residual activity with NIPAB at […] nm). Details: inactivation rate constant (given as kin x 10^4) at 0.1 M compound; 0.1 M potassium phosphate pH 7.5; 25°C; active site, turnover-linked; also a substrate.
T1 construct: gene pac; free enzyme in solution; mature alpha/beta heterodimer cut from one precursor (known biology)
T1 sequence (P06875 27-235, looked up): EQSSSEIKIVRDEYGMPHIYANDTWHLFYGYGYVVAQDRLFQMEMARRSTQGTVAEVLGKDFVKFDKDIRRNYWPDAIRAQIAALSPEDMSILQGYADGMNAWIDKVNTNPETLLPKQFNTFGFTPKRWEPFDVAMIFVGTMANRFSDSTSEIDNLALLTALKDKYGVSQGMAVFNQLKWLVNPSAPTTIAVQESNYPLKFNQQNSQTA
T1 sequence (P06875 290-846, looked up): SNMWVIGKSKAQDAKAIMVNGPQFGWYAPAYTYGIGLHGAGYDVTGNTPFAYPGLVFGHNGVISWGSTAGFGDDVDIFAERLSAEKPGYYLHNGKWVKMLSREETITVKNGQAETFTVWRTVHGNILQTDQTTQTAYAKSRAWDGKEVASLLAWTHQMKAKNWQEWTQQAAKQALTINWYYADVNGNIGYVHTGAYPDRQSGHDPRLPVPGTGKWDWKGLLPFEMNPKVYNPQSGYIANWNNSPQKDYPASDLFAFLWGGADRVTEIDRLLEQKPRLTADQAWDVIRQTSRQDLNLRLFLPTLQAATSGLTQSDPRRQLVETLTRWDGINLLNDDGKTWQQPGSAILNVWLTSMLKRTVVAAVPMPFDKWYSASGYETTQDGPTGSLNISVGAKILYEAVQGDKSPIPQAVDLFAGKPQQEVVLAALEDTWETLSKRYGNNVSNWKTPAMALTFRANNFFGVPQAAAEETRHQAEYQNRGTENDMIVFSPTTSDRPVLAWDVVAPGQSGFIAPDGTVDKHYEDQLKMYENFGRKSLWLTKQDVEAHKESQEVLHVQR
Format: biochemical

kin.10^4, min^-1	SMILES
1.1 ± 0.1 min^-1	NC(=O)CCl [2-chloroacetamide]
47 ± 2 min^-1	NC(=O)CBr [2-bromoacetamide]

SMILES	kin.10^4, min^-1
NC(=O)CI [2-iodoacetamide]	364 ± 34 min^-1
